Test results from ChEMBL document CHEMBL5385884, “Expanding role of CXCR2 and therapeutic potential of CXCR2 antagonists in inflammatory diseases and cancers” (Eur J Med Chem, 2023).

How the values were obtained:
[1] = biological target: C-X-C chemokine receptor type 4 (Homo sapiens, UniProt P61073); assay: Antagonist activity at SDF-1-activated CXCR4 (unknown origin) overexpressed in human U2OS cells preincubated for 30 mins followed by SDF-1 addition measured after 5 hrs by beta-lactamase reporter gene assay; type: functional, cell-based
[2] = biological target: T1, C-X-C chemokine receptor type 2 (Homo sapiens, UniProt P25025); assay: Antagonist activity at CXCL8-activated CXCR2 (unknown origin) overexpressed in human U2OS cells preincubated for 30 mins followed by CXCL8 addition measured after 5 hrs by beta-lactamase reporter gene assay; type: functional, cell-based
T1 sequence (P25025 whole entry): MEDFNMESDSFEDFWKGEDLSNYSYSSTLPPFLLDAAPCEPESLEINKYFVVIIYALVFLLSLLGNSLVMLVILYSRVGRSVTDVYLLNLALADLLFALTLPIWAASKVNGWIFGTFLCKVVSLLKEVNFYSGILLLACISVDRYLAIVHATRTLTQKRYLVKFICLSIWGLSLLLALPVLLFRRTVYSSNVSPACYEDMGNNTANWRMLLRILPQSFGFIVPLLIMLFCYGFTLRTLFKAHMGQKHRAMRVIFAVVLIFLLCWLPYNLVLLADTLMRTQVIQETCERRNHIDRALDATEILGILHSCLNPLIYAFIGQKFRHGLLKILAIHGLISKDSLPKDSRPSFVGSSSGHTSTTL

[3] = Effective half life in human; type: ADME; conditions: read-out: t1/2eff (converted)
[4] = Intrinsic clearance in human hepatocytes measured per million cells at 100 uM incubated upto 90 mins by LCMS/MS analysis; type: ADME, cell-based, Hepatocyte; conditions: read-out: CLH
[5] = biological target: T1, C-X-C chemokine receptor type 2; assay: Antagonist activity at CXCR2 (unknown origin); type: functional

Chain of C-X-C chemokine receptor type 4 (P61073 whole entry): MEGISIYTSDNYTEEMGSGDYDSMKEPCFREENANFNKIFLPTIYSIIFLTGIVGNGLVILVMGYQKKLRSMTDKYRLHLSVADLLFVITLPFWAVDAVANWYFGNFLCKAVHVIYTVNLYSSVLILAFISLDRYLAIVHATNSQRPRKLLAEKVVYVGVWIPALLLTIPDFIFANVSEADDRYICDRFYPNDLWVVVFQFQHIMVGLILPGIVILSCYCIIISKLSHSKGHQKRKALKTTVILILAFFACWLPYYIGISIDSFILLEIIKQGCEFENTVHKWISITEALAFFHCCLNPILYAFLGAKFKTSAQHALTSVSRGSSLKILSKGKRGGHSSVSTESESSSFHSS

| IC50 [5] | Compound | IC50 [1] | IC50 [2] | other results |
| --- | --- | --- | --- | --- |
|  | CC(=O)c1c(C)oc2c1cc(NS(=O)(=O)c1ccc(C(C)(C)C)cc1)c1ccccc12 | > 50000 nM |  |  |
|  | COc1cc(NS(=O)(=O)c2ccc(C)cc2)c2ncccc2c1 |  | 400 nM |  |
|  | C[C@@H](Oc1cc(NS(=O)(=O)N2CCC2)nc(SCc2cccc(F)c2F)n1)[C@@H](O)CO |  |  | half-life [3]: 4 h; hepatocyte CLint at 100 µM [4]: < 5 µL/min/1e6 cells |
|  | COc1cc(NS(=O)(=O)c2cccc3nsnc23)c2ncccc2c1 | 590 nM | 360 nM |  |
| 0.7 nM | C[C@@H](C(=O)NS(C)(=O)=O)c1ccc(OS(=O)(=O)C(F)(F)F)cc1 [LADARIXIN] |  |  |  |
| 22 nM | O=C(Nc1ccc(F)cc1)c1cnc(SCc2cc(OC(F)(F)F)ccc2B(O)O)nc1 [SX-682] |  |  |  |
